ChEMBL document CHEMBL3351901 (Bioorg Med Chem, 2014)
Substitutions are numbered along the chain they refer to.

Key:
[1] = target: T1, Aldo-keto reductase family 1 member C3 (Homo sapiens, UniProt P42330)
T1 sequence (P42330 whole entry): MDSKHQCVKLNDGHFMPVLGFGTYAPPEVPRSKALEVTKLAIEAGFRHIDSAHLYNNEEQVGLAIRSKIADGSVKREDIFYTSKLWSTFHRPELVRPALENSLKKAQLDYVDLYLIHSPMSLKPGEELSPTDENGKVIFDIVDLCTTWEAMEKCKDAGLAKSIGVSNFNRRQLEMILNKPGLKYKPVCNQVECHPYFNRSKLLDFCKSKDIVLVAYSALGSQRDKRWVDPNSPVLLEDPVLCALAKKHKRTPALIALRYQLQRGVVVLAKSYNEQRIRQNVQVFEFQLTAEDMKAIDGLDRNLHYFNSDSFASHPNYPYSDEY
Description: Inhibition of AKR1C3 (unknown origin) assessed as dehydrogenase activity of enzyme by NADPH fluorescence assay

[2] = target: T2, Aldo-keto reductase family 1 member C1 (Homo sapiens, UniProt Q04828); test: Inhibition of AKR1C1 (unknown origin) assessed as dehydrogenase activity of enzyme by NADPH fluorescence assay
T2 sequence (Q04828 whole entry): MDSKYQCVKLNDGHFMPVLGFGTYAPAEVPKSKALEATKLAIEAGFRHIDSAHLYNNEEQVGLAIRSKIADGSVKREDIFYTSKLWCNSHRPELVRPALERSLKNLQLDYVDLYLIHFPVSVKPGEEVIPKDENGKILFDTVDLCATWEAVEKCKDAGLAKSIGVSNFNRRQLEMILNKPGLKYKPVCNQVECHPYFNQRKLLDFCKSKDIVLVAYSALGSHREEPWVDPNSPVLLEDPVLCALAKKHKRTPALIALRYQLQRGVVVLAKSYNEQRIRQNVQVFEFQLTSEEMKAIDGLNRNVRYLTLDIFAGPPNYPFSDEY

[3] = target: T3, Aldo-keto reductase family 1 member C2 (Homo sapiens, UniProt P52895); test: Inhibition of AKR1C2 (unknown origin) assessed as dehydrogenase activity of enzyme by NADPH fluorescence assay
T3 sequence (P52895 whole entry): T2 sequence (Q04828 whole entry) with T38V, R47H, L54V, C87S, V151M, R170H, Q172L

[4] = target: T4, Aldo-keto reductase family 1 member C4 (Homo sapiens, UniProt P17516); test: Inhibition of AKR1C4 (unknown origin) assessed as dehydrogenase activity of enzyme by NADPH fluorescence assay
T4 sequence (P17516 whole entry): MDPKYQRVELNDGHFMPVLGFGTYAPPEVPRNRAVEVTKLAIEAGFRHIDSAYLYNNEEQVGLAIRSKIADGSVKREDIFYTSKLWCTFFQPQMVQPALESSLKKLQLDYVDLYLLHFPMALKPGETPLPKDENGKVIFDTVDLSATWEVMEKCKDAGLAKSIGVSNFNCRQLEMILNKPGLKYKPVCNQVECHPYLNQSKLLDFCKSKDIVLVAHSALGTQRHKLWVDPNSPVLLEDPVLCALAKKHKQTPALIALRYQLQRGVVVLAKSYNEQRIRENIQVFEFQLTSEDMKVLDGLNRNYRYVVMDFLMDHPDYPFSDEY

[5] = target: T1, Aldo-keto reductase family 1 member C3; test: Inhibition of AKR1C3-mediated androsterone metabolism in human A549 cells assessed as 5alpha-androstane-3alpha, 17beta-diol after 24 hrs by LC/MS analysis; type: cell-based

| Structure (SMILES) | IC50 [1] [nM] | further results |
| --- | --- | --- |
| O=C(O)/C=C/c1ccc(OC(=O)CCc2cccc(O)c2)c(OCc2cccc(F)c2)c1 | 800 | – |
| C/C=C/COc1cc(/C=C/C(=O)O)ccc1OC(=O)CCc1ccccc1 | 1100 | – |
| Cc1ccc(COc2cc(/C=C/C(=O)O)ccc2OC(=O)CCc2ccc(F)cc2)cc1 | 470 | – |
| O=C(O)/C=C/c1ccc(OC(=O)CCc2c(F)cc(F)cc2F)c(OCc2cccc(F)c2)c1 | 580 | – |
| CCCCOc1cc(/C=C/C(=O)O)ccc1OC(=O)CCc1ccccc1 | 420 | – |
| CCCOc1cc(/C=C/C(=O)O)ccc1OC(=O)CCc1ccccc1 | 2200 | – |
| COc1cc(/C=C/C(=O)O)ccc1OC(=O)CCc1ccccc1 | 4500 | – |
| Cc1ccc(COc2cc(/C=C/C(=O)O)ccc2OC(=O)CCc2c(F)cc(F)cc2F)cc1 | 540 | – |
| C=C(C)COc1cc(/C=C/C(=O)O)ccc1OC(=O)CCc1ccccc1 | 850 | – |
| CCOc1cc(/C=C/C(=O)O)ccc1OC(=O)CCc1ccccc1 | 970 | – |
| O=C(O)/C=C/c1ccc(OC(=O)CCc2ccccc2)c(OCCc2ccccc2)c1 | 570 | – |
| O=C(O)/C=C/c1ccc(OC(=O)CCc2cccc(F)c2)c(OCc2cccc(F)c2)c1 | 400 | – |
| Cc1ccc(COc2cc(/C=C/C(=O)O)ccc2OC(=O)CCc2ccc(O)cc2)cc1 | 770 | – |
| CC(C)COc1cc(/C=C/C(=O)O)ccc1OC(=O)CCc1ccccc1 | 560 | – |
| CC(C)Oc1cc(/C=C/C(=O)O)ccc1OC(=O)CCc1ccccc1 | 3100 | – |

Now from value to compound, other results behind:

| IC50 [1] [nM] | Structure (SMILES) | further results |
| --- | --- | --- |
| 390 | O=C(O)/C=C/c1ccc(OC(=O)CCc2ccccc2)c(OCc2ccccc2)c1 | – |
| 110 | Cc1ccc(COc2cc(/C=C/C(=O)O)ccc2OC(=O)CCc2ccccc2)cc1 | – |
| 320 | O=C(O)/C=C/c1ccc(OC(=O)CCc2ccccc2)c(OCc2ccccc2F)c1 | – |
| 360 | O=C(O)/C=C/c1ccc(OC(=O)CCc2ccccc2)c(OCc2cc(F)cc(F)c2)c1 | – |
| 20 | O=C(O)/C=C/c1ccc(OC(=O)CCc2ccccc2)c(OCc2cccc(O)c2)c1 | IC50 [2]: 81000 nM; IC50 [3]: > 100000 nM; IC50 [4]: 20000 nM; IC50 [5]: 8000 nM |
| 960 | COc1cccc(COc2cc(/C=C/C(=O)O)ccc2OC(=O)CCc2ccccc2)c1 | IC50 [2]: > 100000 nM; IC50 [3]: > 100000 nM; IC50 [4]: > 100000 nM |
| 160 | Cc1ccc(COc2cc(/C=C/C(=O)O)ccc2OC(=O)CCc2cccc(F)c2)cc1 | – |
| 910 | Cc1ccc(COc2cc(/C=C/C(=O)O)ccc2OC(=O)CCc2cccc(O)c2)cc1 | – |
| 220 | O=C(O)/C=C/c1ccc(OC(=O)CCc2ccccc2)c(OCc2ccc(F)cc2)c1 | – |
| 840 | O=C(O)/C=C/c1ccc(OC(=O)CCc2ccc(O)cc2)c(OCc2cccc(F)c2)c1 | – |
| 890 | O=C(O)/C=C/c1ccc(OC(=O)CCc2ccccc2)c(OCc2ccc(Cl)cc2)c1 | – |
| 110 | O=C(O)/C=C/c1ccc(OC(=O)CCc2ccccc2)c(OCc2cccc(F)c2)c1 | – |
| 540 | O=C(O)/C=C/c1ccc(OC(=O)CCc2ccc(F)cc2)c(OCc2cccc(F)c2)c1 | – |
